# Patent publication US12390467B2, “Necroptosis inducers or autophagy inhibitors or a combination thereof” (The University of Toledo, priority 2018, dated 2025)
# Columns and labels:
# Assay type in all cases: cell-based
# [1] = system: MDA-MB231 (TNBC cell line); assay: MTT cell viability assay, MDA-MB231; conditions: Homo sapiens, MDA-MB-231, 72 h, read-out: IC50 ± SD, MDA-MB231
# Experimental: (§1) The following cancer and non-cancer cell lines were used in the initial cytotoxicity screening of the TPH104 compounds: triple negative breast cancer (TNBC): MDA-MB468, MDA-MB 231, and BT-20; non-TNBC: MCF-7 and ZR-75-1; ovarian: Ov2008; prostate: DU145; colon: HCT-116, S1, and LOVO; lung: H460; normal kidney: HEK-293; normal breast: HMEC; and normal colon: CRL-1459. All cells were cultured in Dulbecco's modified Eagle medium (DMEM), supplemented with 10% fetal bovine serum (FBS), and 1% penicillin/streptomycin (P/S). Cells were allowed to grow as adherent monolayers in T25 flasks in a humidified incubator with 5% CO2 at 37° C. for a period of 24 h, unless otherwise specified for certain experiments.
# The MTT assay was used to determine the cytotoxicity of all of the compounds. Briefly, in a 96-well flat-bottom cell culture plate, the cells were seeded at a density between 3-5×10^3 cells/well (180 μl in each well) and incubated for 24 h (a hemocytometer was used for cell counting). The next day, the cells were incubated with different concentrations of the nine compounds (0, 0.1, 0.3, 1, 3, 10, 30, and 100 μM) for 72 h. After 72 h, 20 μl of 5 mg/ml of 3-(4,5-dimethylthiazol-2-yl)-2,5-diphenyltetrazolium bromide (MTT) was added to the plate and incubated with the cells for 3 h at 37° C. In this experiment, the living cells will reduce the soluble MTT dye to non-soluble purple formazan crystals. Following incubation, the media containing MTT removed via suction and 100 μL of 100% dimethyl sulfoxide (DMSO) was added to dissolve the formazan crystals. Subsequently, the plate was shaken for 2 minutes and the absorbance was measured at a wavelength of 570 nm using a SpectraMax iD3 Multi-Mode Microplate Reader (Molecular Devices, Sunnyvale, CA). The IC50 values of each compound were calculated and used to determine the selectivity ratio (IC50 in normal cells/IC50 in cancer cells) of each compound as previously described. Based on the results obtained from these experiments, the compound TPH104, which had the lowest IC50 value, was selected for further experiments.
# [2] = system: other normal cell lines (colon and kidney); assay: MTT cytotoxicity, other normal cell lines
# Experimental: as §1
# The MTT assay was used to determine the cytotoxicity of all of the compounds. Briefly, in a 96-well flat-bottom cell culture plate, the cells were seeded at a density between 3-5×10^3 cells/well (180 μl in each well) and incubated for 24 h (a hemocytometer was used for cell counting). […] Subsequently, the plate was shaken for 2 minutes and the absorbance was measured at a wavelength of 570 nm using a SpectraMax iD3 Multi-Mode Microplate Reader (Molecular Devices, Sunnyvale, CA). The IC50 values of each compound were calculated and used to determine the selectivity ratio (IC50 in normal cells/IC50 in cancer cells) of each compound as previously described. […]
# BT-20 cells = assay: Hoechst 33258 assay and live cell morphology, BT-20
# Experimental: FIGS. 8A-8B: Representative images of morphological changes in BT-20 TNBC cells incubated with 0, 1, or 3 μM of TPH104 (FIG. 8A). The images were taken using an incuCyte live cell imaging instrument.
# (§2) To detect DNA fragmentation following apoptotic cell death, the Hoechst 33258 assay was performed. Briefly, TNBC cells were seeded in a 6-well plate at a density of 10,000 cells/well over 18-mm cover slips and incubated for 24 h. Following incubation, TPH104 (1, 2, or 5 μM), or vehicle were added for an additional 12 h. Subsequently, Hoechst 33258 (Sigma Aldrich, USA) was added to the cells at a concentration of 0.5 mg/mL and incubated for 30 minutes at 37° C. The cells were then washed 3× with phosphate buffered saline (PBS). Subsequently, the cover slips were mounted on a microscope glass/slide and allowed to dry for at least 2 h. Stained cells from each cover slip were captured from randomly selected fields under a fluorescent microscope (EVOS-FLC cell imaging system, Thermofisher scientific) to qualitatively determine the proportion of viable and apoptotic cells based on their relative fluorescence and nuclear fragmentation as previously described.
# MDA-MB468 cells = assay: Nuclear condensation and morphology, MDA-MB468
# Experimental: as §2
# BT-20 or MDA-MB468 cells = assay: Cellular reactive oxygen species (ROS) detection assay (H2DCFDA); conditions: 1, 2, and 5 μM, 12 h
# Experimental: To assess the effect of TPH104 on the generation of ROS, a cell permeant, fluorogenic dye, 2′,7′-dichlorofluorescin diacetate, H2DCFDA, was used. A 5 mM stock solution was prepared using DMSO and PBS was used to prepare the 3 μM working solution of H2DCFDA. The TNBC cells were seeded in a 6-well plate as described in the cell cycle assay. After overnight incubation, cells were incubated with different TPH104 (1, 2, 5 μM) or vehicle for 12 h or with 2 μM of paclitaxel (positive control) for 2 h. The H2DCFDA dye (3 μM) was added to each well and the plate was incubated for an additional 30 minutes. Subsequently, cells were washed 3 times in PBS to remove excess H2DCFDA dye. Thereafter, cells from each well were captured from randomly selected fields using a fluorescent microscope (EVOS-FLC cell imaging system, Thermofisher scientific) at 40× to determine the 2′,7′-dichlorofluorescein (DCF) fluorescence intensity, which is positively correlated with the generation of ROS.
# [3] = system: MDA-MB468, BT-20, and MDA-MB231; assay: Trans-well migration assay; conditions: 1 μM or 10 μM, 24 h
# Experimental: This assay was used to assess the migration and invasiveness of TNBC cells. In this assay, 24 well-plates with 24 well inserts of 8 μm pore size, (Corning, Cambridge, MA, USA), were used. The inserts were pre-coated with growth-factor reduced matrigel (1:40) and added to each well, forming two chambers (upper and lower). Briefly, cells were seeded at a density of 10,000 cells/well in the upper chamber of the inserts. The lower chamber was filled with cell-free DMEM medium supplemented with 10% FBS and 1% P/S. The next day, cells were incubated with 0.1, 1, or 10 μM of TPH104 or vehicle for 24 h to allow the cells to migrate through the porous membrane into the lower chamber. Following incubation, cotton swabs were used to wipe away the non-migrated, stationary cells in the upper chamber. The migrated cells were fixed with 100% methanol and stained with 0.1% crystal violet dye. The migrated cells were then viewed, pictured and counted using an EVOS-FLC microscope as previously reported.
# [4] = system: S1M180 and H460-MX20 ABCG2-overexpressing cells vs parental S1 and H460; assay: Collateral sensitivity in ABCG2-overexpressing versus parental cells; conditions: 0.3, 3, and 30 μM
# Description: The data is shown as means±SEM of three independent experiments.
smiles,measurement,setting,value
COc1ccc(O)c(/C=N/Nc2ncnc3scc(-c4ccc(C)cc4)c23)c1 [TPH104],IC50,[1],190 nM
same,selectivity fold in comparison to other normal cell lines (colon and kidney),[2],up to 30 fold
same,cellular shrinkage,BT-20 cells; 1 μM and 3 μM,did not induce cellular shrinkage
same,rupture of the cellular membrane,BT-20 cells; 1 μM and 3 μM,did induce rupture
same,nuclear condensation,"BT-20 cells; 1, 2, and 5 μM, 12 h",did not show nuclear condensation
same,nuclear condensation or cellular shrinkage,MDA-MB468 cells,did not produce
same,DCF fluorescence levels (ROS),BT-20 or MDA-MB468 cells,did not significantly alter
same,migration of TNBC cells,[3],significantly decreased
same,"ABCG2 transporter mediated multidrug resistance, collateral sensitivity",[4],collateral sensitivity
